The source of these data is patent publication US9522124B2, “Methods for treating Alzheimer's disease” (Wisconsin Alumni Research Foundation, priority 2011, dated 2016).

By IC50 is commonly meant the concentration at which inhibition is half-maximal. Low values mean inhibition by little substance, high ones a need for much substance.

Data set [1] in a line: BBB permeability: mass spectrometry of CSF of treated wild-type mice. In kind it is in vivo, mouse. The note with it: 50 mg/kg/day in diet, 1 week. Here is the method: FIGS. 14. (A), (B) and (C) Compound 9 is able to cross the BBB. Wild-type mice (n=5) were fed a diet containing 50 mg/kg/day of compound 9 for one week and then sacrificed. Control animals (n=5) received placebo-containing pellets. CSF was collected and analyzed by mass spectrometry (MS) to detect compound 9. The pick corresponding to compound 9 is indicated. […] Because of the strong hydrophobic properties of the compound, elution was in 100% methanol. Under these conditions most of compound 9 was found protonated and complexed as follows: 1 molecule of compound 9 (protonated):3 molecules of water (1 protonated):1 molecule of methanol. The total mass of the eluted complex was 369.4. This complex is only generated when adding methanol during the elution process for the MS. Compound 9 was never observed in control animals.
To assess BBB permeability properties, a group of 5 wild-type mice received 50 mg/kg/day of compound 9 for 1 week. Animals were then sacrificed and CSF collected for biochemical analysis. Treatment was limited to 1 week because this length of time is usually sufficient to reach equilibrium in biological fluids (Ito, et al., 1998; Singh, 2006; Houston and Galetin, 2008). Concentration and duration of the treatment was based on previous studies with drug-like compounds having similar mass and solubility properties (Ito, et al., 1998; Singh, 2006; Houston and Galetin, 2008).

Data set [2] relates to Aβ. The data set can be described thus: ELISA determination of secreted Aβ in conditioned media of H4 cells. In kind it is cell-based, human. The note with it: 10 μM, 48 hours. Here is the method: For Aβ determinations in the conditioned media, H4 cells were plated in 6-well Petri dishes. When 80-90% confluent, cells were washed in PBS and incubated in 1 ml of fresh medium for 48 hr. Secreted Aβ was determined by standard sandwich ELISA as described before (Costantini et al., 2007; Costantini et al., 2006; Jonas et al., 2008; Jonas et al., 2010; Ko and Puglielli, 2009; Pehar et al., 2010). For each sample, the levels of Aβ40, Aβ42, and Aβtotal were quantified as triplicate based upon standard curves run (on every ELISA plate) and then expressed as pmol Aβ/mg of protein. Aβ42 was constantly found to be ˜25% of total Aβ values.

The target of the next data set is T1, ATase2 (Homo sapiens, UniProt Q9UHE5).
T1 construct: myc (C); made in house
T1 sequence (Q9UHE5 1-227): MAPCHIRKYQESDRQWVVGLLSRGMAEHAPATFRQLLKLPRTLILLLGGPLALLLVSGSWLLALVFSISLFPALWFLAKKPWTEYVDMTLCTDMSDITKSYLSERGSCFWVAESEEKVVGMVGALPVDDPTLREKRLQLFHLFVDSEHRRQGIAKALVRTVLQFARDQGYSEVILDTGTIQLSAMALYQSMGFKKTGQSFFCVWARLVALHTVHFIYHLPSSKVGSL
Put plainly: AcetylCoA:lysine acetyltransferase assay (fluorescent, affinity purified ATase2-myc). Type of data set: biochemical. As to the method:
The acetyl:CoA lysine acetyltransferase activity of ATase1 and ATase2 was assayed as described before (Ko and Puglielli, 2009). Briefly, we adapted a commercially available fluorescent kit (cat. no. 10006515, Cayman Chemicals) as follows: as source of the enzymatic activity, we used affinity purified ATase1-myc and ATase2-myc at the final concentration of 300 ng/μl; as donor of the acetyl group, we used acetyl-CoA at the final concentration of 12.5 μM. […] The acetyltransferase assay was performed as recommended by the manufacturer.
For kinetic analysis of ATase1 and ATase2 inhibition, the assays were performed in the presence of the indicated concentrations of compound 9, 19 and 9.I. The concentration of acetyl-CoA was varied from […]. Values were plotted as a Lineweaver-Burk plot using Graphpad Prism software.
We previously described a fluorescent assay that is able to assess the acetylCoA:lysine acetyltransferase activity of ATase1 and ATase2 in vitro (Ko and Puglielli, 2009). The assay employs affinity purified ATase1 or ATase2 (as enzymes), acetyl-CoA (as donor of the acetyl group) and a recombinant peptide corresponding to the N-terminal tail of the histone protein H3 (as acceptor of the acetyl group). The H3 peptide was preferred to affinity purified BACE1 because it is acetylated in a conformation independent manner ((Ko and Puglielli, 2009) and data not shown) and, therefore, more suitable for large screening approaches. To identify possible ATase1 and ATase2 inhibitors we used the assay to screen a single library of 14,400 small molecules/compounds. The screen identified 186 small molecules/compounds able to inhibit ATase1, ATase2 or both in vitro. […] Each compound was then screened for cytotoxic properties by using multi-plex cytotoxicity assays on a variety of cell lines, including human neuroblastoma and human neuroglioma. […] The above 30 compounds were individually screened on human neuroglioma (H4) cells for their ability to reduce the levels of BACE1 and the generation of Aβ. Two compounds, 9 and 19, produced significant changes and were object of further study.

Data set [3] relates to Aβ. Put plainly: Aβ levels in brain homogenates (cortex) of APP695/swe mice. Type of data set: in vivo, mouse. As to the method: A group of non-transgenic and APP695/swe mice were fed a diet containing 50 mg/kg/day of compound 9. Treatment started at weaning (˜6 weeks of age) and lasted 4 months. At the end of treatment, the animals were sacrificed and the electrophysiological properties of hippocampal brain slices (as induced by theta burst stimulation to the Schaffer collaterals) were studied.
Note that at this age, the animals have not yet developed plaques. As expected from our previous results in cellular models (Ko and Puglielli, 2009), no effect on the Aβ42/Aβtotal ratio was observed (data not shown). In fact compound 9 affects BACE1 levels and, as such, impacts on the generation of all Aβ species.

For the next data set, the system named is APP695/swe mice. The data set can be described thus: Long-term potentiation in hippocampal brain slices of treated mice. In kind it is in vivo, mouse. Conditions: 50 mg/kg/day in diet, 4 months. Here is the method: FIG. 15. Compound 9 prevents synaptic deficits in APP695/swe mice. Non-Transgenic (Non-Tg) and APP695/swe mice were fed a diet containing 50 mg/kg/day of compound 9 for 4 months prior to synaptic assessment. Compound 9 prevented the severe deficits of the late component of long term potentiation (LTP) that characterizes the APP695/swe phenotype (A). […] Field excitatory postsynaptic potential (fEPSP) as percent of baseline (100) is shown as a function of time. Calibration: 1 mV, 1 ms. All values are mean±SEM. *P<0.0001.
In order to assess disease-relevant functions, we performed a pilot study with APP695/swe mice, a commonly-used mouse model of AD. APP695/swe mice express a modified mouse APP cDNA encoding the 695-amino acid isoform with a “humanized” Aβ domain that includes the familial AD-associated Swedish double mutation. APP695/swe mice develop synaptic deficits at 3-5 months of age, well before any sign of neurodegeneration can be observed. The cognitive deficits as well as the amyloid plaques can be detected only later, at approximately 12-18 months of age (reviewed in Duyckaerts, et al., 2008).
A group of non-transgenic and APP695/swe mice were fed a diet containing 50 mg/kg/day of compound 9. Treatment started at weaning (˜6 weeks of age) and lasted 4 months. […]

With `O=c1c(Cl)c2oc3ccccc3nc-2c2ccccc12` [Compound 9], the “detection in CSF (crosses blood brain barrier)” value in data set [1] is recorded as “detect compound 9 in all treated animals”. For the same molecule, the “levels of Aβ in the conditioned media / generation of Aβ” value in the data set with Aβ [2] is reported as “decreased levels of Aβ”. The molecule further displayed an IC50 against ATase2 of around 0.79 µM. For the same molecule, the “kinetics of inhibition for acetyl-CoA, ATase2” value at ATase2 (Lineweaver-Burk plot, acetyl-CoA varied) is reported as “non-competitive inhibition”. Further, in the data set on Aβ [3] (50 mg/kg/day in diet, 4 months), the “reduction in soluble Aβ in the brain homogenates” value is around 50%. In addition, the Aβ in the data set on Aβ [3] (brain homogenates (cortex), 50 mg/kg/day in diet, 4 months) worked out at 178 ± 14 ng/gr. The Aβ42/Aβtotal ratio entry with Aβ [3] (data not shown) is “no effect”. Besides, the “defect in late component of long-term potentiation (LTP)” value in the data set with APP695/swe mice (APP695/swe mice) is “drastically prevented”. Besides, the “effect on LTP in non-transgenic mice” value in the data set with APP695/swe mice (non-transgenic mice) was “no effect was observed”.
